Assay results: PubChem BioAssay (NCI)
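Exposure lasted 48 hours, with cells grown in 96-well plates and compounds tested at five concentrations. Abbreviation: GI50, concentration required for 50% inhibition of growth. TGI: total growth inhibition.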

Tests used:
Assay in all cases: NCI-60 cell line screen, 48 h
[1] = system: COLO 205 colon
[2] = system: IGROV1 ovarian
[3] = system: KM12 colon
[4] = system: NCI-H460 lung
[5] = system: OVCAR-4 ovarian
[6] = system: OVCAR-8 ovarian
[7] = system: SK-MEL-2 melanoma
[8] = system: SNB-75 CNS
[9] = system: SW-620 colon

Compound	TGI [1] [µM]	TGI [2] [µM]	TGI [3] [µM]	TGI [4] [µM]	TGI [5] [µM]	TGI [6] [µM]	TGI [7] [µM]	TGI [8] [µM]	TGI [9] [µM]	GI50 [2] [µM]	GI50 [3] [µM]	GI50 [4] [µM]	GI50 [5] [µM]	GI50 [6] [µM]	GI50 [7] [µM]	GI50 [8] [µM]	GI50 [9] [µM]
[N-]=[N+]=CC(=O)C1(C(=O)C=[N+]=[N-])CC1	> 100	> 100	> 100	> 100	> 100	> 100	> 100	> 100	> 100	–	–	–	–	–	–	–	–
Cc1ccc(S(=O)(=O)NC(=O)Nc2c(S(N)(=O)=O)cc(S(N)(=O)=O)c(Cl)c2Cl)cc1	–	> 100	> 100	> 100	> 100	> 100	> 100	–	> 100	–	–	–	–	–	–	–	–
CCCCn1c(-c2ccccc2)cs/c1=N\N=C1C=C(C(C)(C)C)C(=O)C(C(C)(C)C)=C1	> 100	> 100	–	> 100	> 100	> 100	> 100	–	> 100	–	–	–	–	–	–	–	–
O=c1oc2cc(O)ccc2c2[nH]c3cc(O)ccc3c12	74.9	57.9	53.1	96.4	99.6	78.7	50.2	46.2	> 100	–	–	–	–	–	–	–	–
CC1CC(=O)Nc2ccc(Cl)cc2N1C(=O)CN1CCC(CCCCN(C)C)CC1 (configuration not stated)	> 100	> 100	–	> 100	> 100	> 100	–	–	> 100	–	–	–	–	–	–	–	–
Oc1ccc(-c2c3ccccc3c(-c3ccc(O)cc3)c3ccccc23)cc1	> 100	> 100	> 100	> 100	> 100	> 100	> 100	> 100	> 100	–	–	–	–	–	–	–	–
c1ccc(-c2csc3c2-n2cccc2C3N2CCCC2)cc1 (configuration not stated)	–	> 100	> 100	> 100	> 100	> 100	> 100	> 100	> 100	–	–	–	–	–	–	–	–
COC1(OC)CC2C(=O)N(Cc3ccccc3)C1C(S(=O)(=O)c1ccccc1)C2C(C)S(=O)(=O)c1ccccc1 (configuration not stated)	> 100	> 100	> 100	> 100	> 100	> 100	> 100	–	> 100	–	–	–	–	–	–	–	–
Cc1ccc2nc(N)[nH]c(=O)c2c1Sc1ccncc1	> 100	> 100	> 100	> 100	> 100	> 100	> 100	> 100	> 100	–	–	–	–	–	–	–	–
CCOC(=O)/C=C/n1c2ccccc2c(=O)c2cc(OC)ccc21	> 100	> 100	> 100	> 100	> 100	> 100	> 100	> 100	–	–	–	–	–	–	–	–	–
CCN(CC)CC1CCCCN1CC(=O)N1c2cc(Cl)ccc2NC(=O)CC1C (configuration not stated)	> 100	–	> 100	> 100	> 100	> 100	> 100	> 100	> 100	–	–	–	–	–	–	–	–
COc1cc(C2CC(C)(N3CCOCC3)Oc3cc4c(cc32)OCO4)cc(OC)c1OC (configuration not stated)	–	> 35.9	> 100	> 100	8.65	> 100	> 35.9	–	> 100	–	–	–	–	–	–	–	–
Cc1ccc(S(=O)(=O)NC(=O)C2S(=O)(=O)OCCOS2(=O)=O)cc1	> 100	–	> 100	–	> 100	> 100	> 100	> 100	> 100	–	–	–	–	–	–	–	–
O=C([CH-]C(=O)c1ccccc1)c1ccccc1.[C-]#[O+].[C-]#[O+].[Ir]	–	> 100	> 100	> 100	> 100	> 100	> 100	> 100	> 100	88.3	66.1	39.7	> 100	45.4	> 100	45.6	59.4
O=C(Nc1ccccc1[N+](=O)[O-])/C(=N/Nc1cccc(Cl)c1)c1c(O)c2ccccc2oc1=O	47.6	> 100	> 100	> 100	> 100	–	> 100	> 100	> 100	–	–	–	–	–	–	–	–
CCOC(=O)/C(Br)=C1\OC(=O)c2ccccc2-c2ccccc21	49.9	> 100	> 100	–	–	> 100	> 100	> 100	> 100	–	–	–	–	–	–	–	–
Cc1cc(N(CCC#N)S(=O)(=O)c2ccccc2)ccc1C=Nc1cccc(C(=O)O)c1	> 100	> 100	–	> 100	> 100	> 100	> 100	> 100	> 100	–	–	–	–	–	–	–	–
NC(Cc1ccc(O)cn1)C(=O)NC(C(=O)O)c1ccccc1 (configuration not stated)	> 100	> 100	> 100	> 100	> 100	> 100	–	> 100	> 100	–	–	–	–	–	–	–	–
CC(C)OP(=O)(OC(C)C)C(=NCCO)NNc1ccc([N+](=O)[O-])cc1	> 100	–	> 100	> 100	> 100	> 100	> 100	> 100	> 100	–	–	–	–	–	–	–	–
